# Article PMC8073907, “Peptide targeting of lysophosphatidylinositol-sensing GPR55 for osteoclastogenesis tuning” (Cell Communication and Signaling : CCS, 2021)
# Like-named read-outs stand apart in the source and are kept apart here. Bridge positions count the residues as written; N and C are the ends. Ends that are not written are not given here. Peptide text beside a SMILES is read from it. * marks the point of attachment. FITC = O=C1OC2(c3ccc(O)cc3Oc3cc(O)ccc32)c2ccc(NC(=S)*)cc21; Ahx = NCCCCCC(=O)O
# T1: peptide-P1 (synthetic construct, disulfide 1-9 (inferred))
# T1 chain: {FITC-Ahx}-CKKNSPTLC
# B1: GPR55 (protein)
# chain: MSQPERDNCSFDSVDKLTRTLQLAVHIPTFLLGLVLNLLAIRGFSAFLKKRKLDYIATSIYMINLAVFDLLLVLSLPFKMVLPQVESPLPSFCTLVECLYFISMYGSVFTICFISLDRFLAIQYPILASHLRSPRKTFGICCIIWMLVWIGSIPIYTFHREVERYKCFHNMSDVTWSASVFFPLEIFGFLLPMGIMGFCSYRSIHILLRRPDSTEDWVQQRDTKGWVQKRACIWTIATNLVIFVVSFLPVHLGFFLQYLVRNRFILDCRMKQGISLFLQLSLCFSNINCCLDVFCYYFVIKEFRMRIKAHRPSTIKLVNQDTMVSRG
# Columns and labels:
# [1] = molecular target: human GPR55; details: ref [38]; read-out: affinity towards human GPR55; cited from earlier work
# [2] = test system: GPR55-silenced HeLa cells; assay: LPI-induced ERK1/2 and p38 phosphorylation in shGPR55-HeLa clones (Western blot); format: cell-based, human; details: 10 µM soybean LPI, or 1 µM ionomycin 5 min
# Method: For stable interference of GPR55, HeLa cells were plated at 1.5 × 10^5 cells/well in six-well plates in growth medium without antibiotics, and 24 h later, the cells were transfected with 1.7 µg/well OmicsLink short hairpin (sh)RNA expression clone CSHCTR001-CU6 (shCTRL) or clone HSH022476-3-CU6 (shGPR55) from GeneCopoeia (Rockville, MD, USA), using Lipofectamine 2000, according the manufacturer instructions. Forty-eight hours after transfection, HeLa clones stably expressing shRNAs were selected in growth medium containing 0.3 µg/mL puromycin. The efficiency of interference was monitored by real-time PCR using the primers listed in the Additional file 1: Table S1. HPRT1 was followed as a housekeeping gene.
# Twenty-four hours after transfection (HEK293T, HeLa cells or clones) or 72 h after interference (RAW264.7 cells), the cells were washed twice with HBSS^++, serum deprived (HEK293T cells for 4 h in DMEM; HeLa cells and clones for 2 h in MEM plus 2 mM glutamine and 25 mM HEPES; RAW264.7 cells for 2 h in DMEM), washed once again with HBSS^++, incubated in stimulation buffer (HBSS^++ with 10 mM HEPES, 0.4% faf-BSA for HEK293T cells; HBSS^++ with 25 mM HEPES and 0.01% faf-BSA for HeLa cells, clones, and RAW264.7 cells) in the absence or presence of stimuli, at 37 °C for the indicated times. Incubations were terminated by washing the cells twice with cold HBSS^++, and the analyses were performed as reported below.
# Cell lysates were obtained by scraping the cells into phospho-lysis buffer: 50 mM Tris–HCl, pH 7.5, 100 mM NaCl, 5 mM EDTA, 1% Triton X-100, 50 mM NaF, 40 mM β-glycerophosphate, 200 µM sodium orthovanadate, plus protease and phosphatase inhibitors (Roche). […]
# Protein lysates were subjected to SDS-PAGE, and after electrophoresis, the proteins were transferred to a nitrocellulose membrane (PerkinElmer Life Science, Boston, MA, USA). […] The membranes were then washed twice with T-TBS and once with TBS for 5 min, and the signals were detected by ECL (Amersham Pharmacia, Piscataway, NJ, USA). […]
# [3] = test system: human GPR55; details: ref [38]; cited from earlier work
# Source text: GPR55 is overexpressed in several tumour cells, with GPR55 expression shown to correlate with tumour aggressiveness and GPR55 activation to promote cancer-cell proliferation both in cell culture and in xenografts in mice. Therefore, we previously attempted to identify peptides that bind to human GPR55, for innovative targeting of GPR55 for potential therapeutic and/or diagnostic applications. Osteoclasts are also among the cells with the highest expression of GPR55 [9], and as GPR55 is involved in their differentiation, its targeting might be instrument ...
# [4] = test system: EHEB and DeFew cells (two human B-lymphoblastoid cell lines); details: ref [38], cited from earlier work
# [5] = test system: RAW264.7 cells; assay: RANKL-induced transcription of osteoclastogenesis markers in RAW264.7 cells (real-time PCR); format: cell-based, murine; details: 150 nM (0.2 µg/mL) peptide, 15 ng/mL RANKL, 72 h
# Method: Total RNA was extracted using RNeasy isolation kits, cDNAs were obtained using QuantiTect Reverse Transcription kits, and real-time PCRs were performed with QuantiTect SYBR Green PCR kits (all from Qiagen, Hilden, Germany), according to the manufacturer instructions. The primers used for the real-time PCRs and their annealing temperatures are listed in the Additional file 1: Table S1. Human hypoxanthine phosphoribosyltransferase 1 (HPRT1) or murine β2-microglobulin were followed as housekeeping genes. The real-time PCR programme consisted of an initial 15 min at 95 °C, and then 45 cycles as follows: 94 °C for 15 s, annealing temperature of each primer for 30 s, and 72 °C for 30 s. The real-time PCR machine used was a LightCycler 480 Instrument II (Roche, Indianapolis, IN, USA).
# (§1) For transient interference of Gpr55, RAW264.7 cells were plated at 6 × 10^5 cells/well in six-well plates in growth medium without antibiotics. Twenty-four hours later, the cells were transfected with 250 pmol/well non-targeting small-interfering (si)RNAs (si-NT; siGENOME siRNA Pool #2; D-001206-14; Dharmacon, Chicago, IL, USA) or Gpr55-specific siRNAs (si-GPR55; siGENOME mouse GPR55 SMART pool; M-043590-01; Dharmacon) using Lipofectamine LTX and Plus Reagent, according to the manufacturer instructions. Twenty-four hours later, the cells were plated for the different assays or for RNA extraction. The efficiency of interference was monitored by real-time PCR after 72 h of interference, using the primers listed in the Additional file 1: Table S1. β2-microglobulin was followed as a housekeeping gene.
# For the osteoclastogenesis in-vitro assay, RAW264.7 cells were plated in differentiation medium (α-MEM with 10% heat-inactivated FBS, 2 mM L-glutamine, 100 U/mL penicillin, and 100 ug/mL streptomycin) at a density of 5 × 10^3 cells/well in 24-well plates on coverslips for morphological analysis, or at 2 × 10^4 cells/well in six-well plates for RNA extraction. Twenty-four hours later and every 48 h, the medium was replaced and the cells were treated with 15–30 ng/mL RANKL with DMSO and/or PBS as carriers, or with GPR55 antagonists/ agonists (0.5 µM ML-191, 30 µM O1918, 0.5 µM CBD, 0.5 μM CID16020046 1 µM soybean LPI, 1 μM ML-184), or with the peptides (150 nM peptide-P1; or the irrelevant peptide, Irr_P). Twenty-four hours after the last addition, the cells were fixed with 4% paraformaldehyde for morphological analyses or harvested for RNA extraction (see above).
# [6] = test system: ssGPR55-K80A; assay: GPR55-internalisation assay, K80A mutant (FACS); format: cell-based, human; details: data not shown
# Source text: The construct of haemagglutinin (HA)-tagged human GPR55 in pcDNA3 (HA-GPR55) was a gift from Prof. K. Mackie, Indiana University, Bloomington, IN, USA [39], while the construct ss-3 × HA-GPR55 in pcDNA3.1 (ssGPR55) with a triple HA tag at the N-terminus and an optimised signal sequence (ss, derived from amino acids 1–33 of the human growth hormone: […]) for efficient surface expression was from Prof. A. Irving, Dundee University, UK [40]. For both constructs, mutations were introduced by site-directed mutagenesis using QuickChange kits (Stratagene, La Jolla, CA, USA), according to the manufacturer instructions. The primers for the K80A mutation were 5′-[…]-3′ and 5′-[…]-3′ (Tm, 70.6 °C), and for Q87A were 5′-[…]-3′ and 5′-[…]-3′ (Tm, 73.1 °C).
# HeLa cells were plated at 1.5 × 10^5 cells/well in six-well plates in their growth medium without antibiotics. […]
# For the GPR55-internalisation assay, after stimulation, the HeLa cells were washed twice with cold HBSS^++, stained while adhered with the monoclonal anti-HA antibody (1:1000) in PBS plus 3% BSA for 1 h on ice, washed three times with cold PBS, incubated with the Alexa488-tagged anti-mouse antibody (1:800) in PBS plus 3% BSA for 45 min on ice. […] The collected cells were centrifuged at 300×g, suspended in PBS plus 3% BSA, and analysed by FACS.
# [7] = test system: RAW264.7 cells; assay: Osteoclast syncytium formation (nuclei/cell); format: cell-based, murine; details: 150 nM (0.2 µg/mL) peptide, 72 h RANKL
# Method: as §1
# For the evaluation of osteoclast syncytium formation, the nuclei of multinucleated cells were counted in a blinded manner using a 63 × objective, moving across the coverslip in the vertical and horizontal directions.
# For the osteoclastogenesis in-vitro assay, RAW264.7 cells were plated in differentiation medium (α-MEM with 10% heat-inactivated FBS, 2 mM L-glutamine, 100 U/mL penicillin, and 100 ug/mL streptomycin) at a density of 5 × 10^3 cells/well in 24-well plates on coverslips for morphological analysis, or at 2 × 10^4 cells/well in six-well plates for RNA extraction. […]
# [8] = molecular target: peptide-P1 (synthetic construct); details: cited from earlier work
# [9] = molecular target: T2, murine GPR55 (Mus musculus, UniProt Q3UJF0); assay: Peptide binding to intact RAW264.7 cells (FACS); details: FITC-Scr; si-GPR55 + siGLO relative to si-NT + siGLO; 40 µg/mL, 15 min, 37 °C
# T2 construct: endogenous in cells; host or cells: RAW264.7 mouse macrophages (wild-type, or treated with si-NT / si-GPR55 siRNAs)
# Method: Wild-type or 48-h-interfered RAW264.7 cells were plated at a density of 1.2 × 10^6 cells/well in six-well plates, and the following day they were used for on-plate-binding assays, or for RNA extraction. Before peptide addition, the cells were washed twice with HBSS^++, and then incubated without or with 40 µg/mL FITC-P1 or FITC-Scr for the indicated times at 37 °C in HBSS^++ plus 0.01% faf-BSA. The incubations were stopped by three washes with PBS, detached by scraping with PBS plus 2 mM EDTA, and then suspended in PBS plus 3% BSA. Fluorescence intensity was evaluated by FACS, and reported as means of cell-associated fluorescence increases compared to cells incubated in absence of peptides.
# To evaluate peptide-P1 specificity towards murine GPR55, RAW264.7 cells were Gpr55-interfered as above, but the duplexes were previously mixed with the double pmol amount of siGLO Red transfection indicator (Dharmacon). […] FITC-fluorescence intensity was evaluated by FACS, and reported as means of cell-associated fluorescence increases compared to cells incubated in absence of peptides.
# [10] = molecular target: T1, peptide-P1; assay: FACS binding of FITC-peptide to RAW264.7 cells
molecule,measurement,setting,value
CC(C)C[C@@H]1NC(=O)[C@H]([C@@H](C)O)NC(=O)[C@@H]2CCCN2C(=O)[C@H](CO)NC(=O)[C@H](CC(N)=O)NC(=O)[C@H](CCCCN)NC(=O)[C@H](CCCCN)NC(=O)[C@@H](NC(=O)CCCCCNC(=S)Nc2ccc3c(c2)C(=O)OC32c3ccc(O)cc3Oc3cc(O)ccc32)CSSC[C@@H](C(=O)O)NC1=O [FITC-P1] ({FITC-Ahx}-CKKNSPTLC-OH; disulfide 1-9; N-terminus and C-terminus assumed),Kd,[1],20 µM
C[C@H](CCC(=O)O)C[C@H](C)C[C@H](C)C(=O)/C=C(\O)[C@H](C)C[C@H](C)C/C=C/[C@@H](C)[C@@H](O)[C@@H](C)[C@@H](O)C[C@@H]1CC[C@@](C)([C@H]2CC[C@@](C)([C@@H](C)O)O2)O1 [ionomycin],ERK1/2 and p38 activation,[2],still activated these pathways
CKKNSPTLC (disulfide 1-9 (inferred)) [peptide-P1],competition with LPI action,[3],did not compete with LPI action
same,human GPR55 internalisation,[3],inducing human GPR55 internalisation in a β-arrestin–independent manner
same,inhibition of GPR55-dependent proliferation,[4],inhibited GPR55-dependent proliferation of two human B-lymphoblastoid cell lines
same,inhibition of GPR55-dependent proliferation,[4]; listed as Peptide-P1,inhibit GPR55-dependent proliferation of EHEB and DeFew cells
same,inhibition of osteoclast maturation (five differentiation markers),[5],significant inhibition of osteoclast maturation
same,reduction of RANKL-induced Cathepsin-k mRNA by peptide,[5]; three independent experiments,40%
same,reduction of RANKL-induced Ctr mRNA by peptide,[5]; three independent experiments,35%
same,reduction of RANKL-induced Mmp-9 mRNA by peptide,[5]; three independent experiments,50%
same,reduction of RANKL-induced Nfatc1 mRNA by peptide,[5]; three independent experiments,30%
same,reduction of RANKL-induced Trap mRNA by peptide,[5]; three independent experiments,35%
same,regulation of wild-type and GPR55-K80A mutant internalisation,[6],comparable regulation of both wild-type and GPR55-K80A mutant internalisation
same,"effect on RANKL-induced osteoclast syncytium formation, peptide",[7],did not have any significant effects
GPR55 (from UniProt Q9Y2T6),Kd,[8],20 µM
"KCLTSNCPK (disulfide 2-7 (inferred)) [FITC-Scr, FITC-conjugated scrambled (…) peptide]",effect of Gpr55 interference on binding,[9],not significantly affected by Gpr55 interference
B1,Kd,[10],22.7 µM
